Results on 26 compounds are retold here after US7691889B2, “Antimycobacterial compounds” (Lupin Limited, priority 2002, dated 2010).

In brackets after ≈: the same amount, converted by molar mass. Some results are limits rather than exact numbers.

One test has as its system M. tuberculosis 27294. Briefly: In vitro agar dilution assay (MIC), reference strain. The class given is cell-based, Mycobacterium tuberculosis. Particulars: for MIC against M. tuberculosis 27294: Middlebrook 7H10; for MIC: Mycobacterium tuberculosis, 27294, Middlebrook 7H10, read-out: MIC against M. tuberculosis 27294. (Agar dilution tests growth on a series of plates holding different concentrations.)

Test [1] relates to M. tuberculosis clinical isolates, sensitive. Briefly: microbe, parasite or virus in culture. The class given is cell-based, Mycobacterium tuberculosis. To be noted: for MIC against Clinical isolates Sensitive: Table I, agar dilution.

`O=C(CCC(=O)c1ccccc1)NC[C@H]1CN(c2ccc(N3CCOCC3)c(F)c2)C(=O)O1` [Compound 1, (S)-N-[[3-(3-fluoro-4-morpholinylphenyl)-2-oxo-5-oxazolidinyl]methyl]-4-oxo-4-phenylbutanamide]: in the test with M. tuberculosis 27294, the “MIC against M. tuberculosis 27294” value turned out to be 16 µg/mL (≈ 35.1 µM). Also, the “MIC against Clinical isolates Sensitive” value in test [1] was in the range of 4 to 16 µg/mL.
On to `Cc1ccc(C(=O)CCC(=O)NC[C@H]2CN(c3ccc(N4CCOCC4)c(F)c3)C(=O)O2)cc1` [Compound 2, (S)-N-[[3-(3-fluoro-4-morpholinylphenyl)-2-oxo-5-oxazolidinyl]methyl]-4-(4-methylphenyl)-4-oxobutanamide], for which the “MIC against M. tuberculosis 27294” value against M. tuberculosis 27294 is 8 µg/mL (≈ 17 µM). Besides, in test [1], the “MIC against Clinical isolates Sensitive” value came out at 8 µg/mL (≈ 17 µM).
`O=C(CCC(=O)c1ccccc1)NC[C@H]1CN(c2ccc(N3CCSCC3)c(F)c2)C(=O)O1` [Compound 8, (S)-N-[[3-(3-fluoro-4-thiomorpholinylphenyl)-2-oxo-5-oxazolidinyl]methyl]-4-oxo-4-phenylbutanamide]: the “MIC against M. tuberculosis 27294” value with M. tuberculosis 27294 was determined as 2 µg/mL (≈ 4.24 µM). The “MIC against Clinical isolates Sensitive” value in test [1] is “.5 to 2 µg/mL”.
For the compound `COc1ccc(C(=O)CCC(=O)NC[C@H]2CN(c3ccc(N4CCOCC4)c(F)c3)C(=O)O2)cc1` [Compound 13, (S)-N-[[3-(3-fluoro-4-morpholinylphenyl)-2-oxo-5-oxazolidinyl]methyl]-4-(4-methoxyphenyl)-4-oxobutanamide], in the test on M. tuberculosis 27294, the “MIC against M. tuberculosis 27294” value was 2 µg/mL (≈ 4.12 µM). In addition, in test [1], the “MIC against Clinical isolates Sensitive” value is 2 µg/mL (≈ 4.12 µM).
`O=C(CCC(=O)c1ccc(Cl)cc1)NC[C@H]1CN(c2ccc(N3CCOCC3)c(F)c2)C(=O)O1` [Compound 14, (S)-N-[[3-(3-fluoro-4-morpholinylphenyl)-2-oxo-5-oxazolidinyl]methyl]-4-(4-chlorophenyl)-4-oxobutanamide]: the “MIC against M. tuberculosis 27294” value in the test on M. tuberculosis 27294 was determined as 0.25 µg/mL (≈ 0.51 µM). For the same compound, in test [1], the “MIC against Clinical isolates Sensitive” value was in the range of 0.25 to 0.5 µg/mL.
In the case of `Cc1ccc(C(=S)CCC(=O)NC[C@H]2CN(c3ccc(N4CCOCC4)c(F)c3)C(=O)O2)cc1` [Compound 15, (S)-N-[[3-(3-fluoro-4-morpholinylphenyl)-2-oxo-5-oxazolidinyl]methyl]-4-(4-methylphenyl)-4-thiooxobutanamide], the “MIC against M. tuberculosis 27294” value with M. tuberculosis 27294 was more than 16 µg/mL. In addition, the “MIC against Clinical isolates Sensitive” value in test [1] is more than 16 µg/mL.
For the compound `O=C(CCC(=O)c1ccc2ccccc2c1)NC[C@H]1CN(c2ccc(N3CCOCC3)c(F)c2)C(=O)O1` [Compound 16, (S)-N-[[3-(3-fluoro-4-morpholinylphenyl)-2-oxo-5-oxazolidinyl]methyl]-4-(4-2-naphthyl)-4-oxobutanamide], the “MIC against M. tuberculosis 27294” value in the test on M. tuberculosis 27294 stood at 0.5 µg/mL (≈ 0.989 µM). The “MIC against Clinical isolates Sensitive” value in test [1] came to 0.5 µg/mL (≈ 0.989 µM).
As to `CC(C)Cc1ccc(C(=O)CCC(=O)NC[C@H]2CN(c3ccc(N4CCOCC4)c(F)c3)C(=O)O2)cc1` [Compound 17], the “MIC against M. tuberculosis 27294” value against M. tuberculosis 27294 was found to be 0.5 µg/mL (≈ 0.977 µM). In addition, the “MIC against Clinical isolates Sensitive” value in test [1] came out at 1.0 µg/mL (≈ 1.95 µM).
As for `O=C(CCC(=O)c1ccc(F)cc1F)NC[C@H]1CN(c2ccc(N3CCOCC3)c(F)c2)C(=O)O1` [Compound 18, (S)-N-[[3-(3-fluoro-4-morpholinylphenyl)-2-oxo-5-oxazolidinyl]methyl]-4-(2,4-difluorophenyl)-4-oxobutanamide], in the test with M. tuberculosis 27294, the “MIC against M. tuberculosis 27294” value is 4− μg/ml. Moreover, in test [1], the “MIC against Clinical isolates Sensitive” value fell in the range of 1 to 4 µg/mL.
On the same counts, the results for `O=C(CCC(=O)c1cccs1)NC[C@H]1CN(c2ccc(N3CCOCC3)c(F)c2)C(=O)O1` [Compound 19, (S)-N-[[3-(3-fluoro-4-morpholinylphenyl)-2-oxo-5-oxazolidinyl]methyl]-4-oxo-4-(2-thienyl)butanamide] are 2 µg/mL (≈ 4.33 µM) and 1 to 2 µg/mL.
Regarding `CSc1ccc(C(=O)CCC(=O)NC[C@H]2CN(c3ccc(N4CCOCC4)c(F)c3)C(=O)O2)cc1` [Compound 21, (S)-N-[[3-(3-fluoro-4-morpholinylphenyl)-2-oxo-5-oxazolidinyl]methyl]-4-oxo-4-(4-thiomethyl)phenylbutanamide], the “MIC against M. tuberculosis 27294” value in the test with M. tuberculosis 27294 was 0.5 µg/mL (≈ 0.997 µM). For the same compound, the “MIC against Clinical isolates Sensitive” value in test [1] fell in the range of 0.5 to 2 µg/mL.
Turning to `Cc1ccc(C(=O)CCC(=O)NC[C@H]2CN(c3ccc(N4CCOCC4)c(F)c3)C(=O)O2)c(C)c1` [Compound 25, (S)-N-[[3-(3-fluoro-4-morpholinylphenyl)-2-oxo-5-oxazolidinyl]methyl]-4-(2,4-dimethylphenyl)-4-oxobutanamide], the “MIC against M. tuberculosis 27294” value against M. tuberculosis 27294 is 4 µg/mL (≈ 8.27 µM). Further, the “MIC against Clinical isolates Sensitive” value in test [1] lay in the range of 4 to 16 µg/mL.
The corresponding values for `Cc1ccc(C(=O)CCC(=O)NC[C@H]2CN(c3ccc(-n4nnc5ccccc54)c(F)c3)C(=O)O2)c(C)c1` [Compound 27, (S)-N-[[3-(3-fluoro-4-benzotriazolylphenyl)-2-oxo-5-oxazolidinyl]methyl]-4-(2,4-dimethylphenyl)-4-oxobutanamide] are more than 16 µg/mL and more than 16 µg/mL.
As for `O=C(CCC(=O)c1cccs1)NC[C@H]1CN(c2ccc(N3CCCC3)c(F)c2)C(=O)O1` [Compound 28, (S)-N-[[3-(3-fluoro-4-pyrrolidinylphenyl)-2-oxo-5-oxazolidinyl]methyl]-4-oxo-4-(2-thienyl)butanamide], the “MIC against M. tuberculosis 27294” value against M. tuberculosis 27294 was 0.5 µg/mL (≈ 1.12 µM). In addition, in test [1], the “MIC against Clinical isolates Sensitive” value was in the range of 1 to 2 µg/mL.
In the case of `O=C(CCC(=O)c1cccs1)NC[C@H]1CN(c2ccc([N+]3([O-])CCOCC3)c(F)c2)C(=O)O1` [Compound 31, (S)-N-[[3-(3-fluoro-4-morpholinylphenyl)-2-oxo-5-oxazolidinyl]methyl]-4-oxo-4-(2-thienyl)butanamide-N-oxide], the “MIC against M. tuberculosis 27294” value against M. tuberculosis 27294 amounted to 1 µg/mL (≈ 2.09 µM). In addition, in test [1], the “MIC against Clinical isolates Sensitive” value was in the range of 1 to 2 µg/mL.
Turning to `O=C(CCC(=O)c1ccc(Cl)cc1)NC[C@H]1CN(c2ccc([N+]3([O-])CCOCC3)c(F)c2)C(=O)O1` [Compound 32, (S)-N-[[3-(3-fluoro-4-morpholinylphenyl)-2-oxo-5-oxazolidinyl]methyl]-4-(4-chlorophenyl)-4-oxobutanamide-N-oxide], the “MIC against M. tuberculosis 27294” value in the test with M. tuberculosis 27294 is 0.25 µg/mL (≈ 0.494 µM). Further, the “MIC against Clinical isolates Sensitive” value in test [1] lay in the range of 0.25 to 0.5 µg/mL.
Turning to `CC(C)Cc1ccc(C(=O)CCC(=O)NC[C@H]2CN(c3ccc([N+]4([O-])CCOCC4)c(F)c3)C(=O)O2)cc1` [Compound 33], the “MIC against M. tuberculosis 27294” value against M. tuberculosis 27294 was found to be 0.5 µg/mL (≈ 0.948 µM). In test [1], the “MIC against Clinical isolates Sensitive” value is 1 µg/mL (≈ 1.9 µM).
Regarding `O=C(C=CC(=O)c1ccccc1)NC[C@H]1CN(c2ccc(N3CCOCC3)c(F)c2)C(=O)O1` [Compound 34, (S)-N-[[3-(3-fluoro-4-morpholinylphenyl)-2-oxo-5-oxazolidinyl]methyl]-4-oxo-4-phenylbut-2-enamide], the “MIC against M. tuberculosis 27294” value with M. tuberculosis 27294 is more than 16 µg/mL. Also, in test [1], the “MIC against Clinical isolates Sensitive” value was more than 16 µg/mL.
For `COc1ccc(C(=O)CCC(=O)NC[C@H]2CN(c3ccc(N4CCCCC4)c(F)c3)C(=O)O2)cc1` [Compound 35, (S)-N-[[3-(3-fluoro-4-piperidylphenyl)-2-oxo-5-oxazolidinyl]methyl]-4-(4-methoxyphenyl)-4-oxobutanamide], in the test on M. tuberculosis 27294, the “MIC against M. tuberculosis 27294” value is 4 µg/mL (≈ 8.27 µM). Besides, the “MIC against Clinical isolates Sensitive” value in test [1] fell in the range of 2 to 4 µg/mL.
Take `O=C(CCC(=O)c1ccc(Cl)cc1)NC[C@H]1CN(c2ccc(N3CCCCC3)c(F)c2)C(=O)O1` [Compound 36, (S)-N-[[3-(3-fluoro-4-piperidylphenyl)-2-oxo-5-oxazolidinyl]methyl]-4-(4-chlorophenyl)-4-oxobutanamide]: the “MIC against M. tuberculosis 27294” value in the test with M. tuberculosis 27294 was 4 µg/mL (≈ 8.2 µM). Besides, the “MIC against Clinical isolates Sensitive” value in test [1] is 4 to 8 µg/mL.
In the case of `O=C(CCC(=O)c1ccc(Cl)cc1)NC[C@H]1CN(c2ccc(-n3nnc4ccccc43)c(F)c2)C(=O)O1` [Compound 39, (S)-N-[[3-(3-fluoro-4-benzotriazolylphenyl)-2-oxo-5-oxazolidinyl]methyl]-4-(4-chlorophenyl)-4-oxobutanamide], the “MIC against M. tuberculosis 27294” value against M. tuberculosis 27294 was 2 µg/mL (≈ 3.83 µM). Moreover, in test [1], the “MIC against Clinical isolates Sensitive” value was in the range of 2 to 4 µg/mL.
Take `Cc1ccc(C(=O)CCC(=O)NC[C@H]2CN(c3ccc(-c4nc[nH]n4)c(F)c3)C(=O)O2)c(C)c1` [Compound 43, (S)-N-[[3-(3-fluoro-4-(1,2,4-triazolyl)phenyl)-2-oxo-5-oxazolidinyl]methyl]-4-(2,4-dimethylphenyl)-4-oxobutanamide]: the MIC was 1 µg/mL (≈ 2.15 µM) with M. tuberculosis 27294 and 0.5 to 1 µg/mL (≈ 1.07 to 2.15 µM) in test [1] (Mycobacterium tuberculosis, read-out: MIC against Clinical isolates Sensitive).
Take `CSc1ccc(C(=O)CCC(=O)NC[C@H]2CN(c3ccc(-n4cncn4)c(F)c3)C(=O)O2)cc1` [Compound 44, (S)-N-[[3-(3-fluoro-4-(1,2,4-triazolyl)phenyl)-2-oxo-5-oxazolidinyl]methyl]-4-oxo-4-(4-thiomethylphenyl)butanamide]: in the test with M. tuberculosis 27294, the “MIC against M. tuberculosis 27294” value was determined as 1 µg/mL (≈ 2.07 µM). In addition, in test [1], the “MIC against Clinical isolates Sensitive” value is 0.5 to 2 µg/mL.
On to `O=C(CCC(=O)c1ccc(F)cc1F)NC[C@H]1CN(c2ccc(-c3nc[nH]n3)c(F)c2)C(=O)O1` [Compound 51, (S)-N-[[3-(3-fluoro-4-(1,2,4-triazolyl)phenyl)-2-oxo-5-oxazolidinyl]methyl]-4-(2,4-difluorophenyl)-4-oxobutanamide], for which the MIC with M. tuberculosis 27294 turned out to be 8 µg/mL (≈ 16.9 µM).
On to `O=C(CCC(=O)c1ccc2ccccc2c1)NC[C@H]1CN(c2ccc(N3CCCC3)c(F)c2)C(=O)O1` [Compound 57, (S)-N-[[3-(3-fluoro-4-pyrrolidinylphenyl)-2-oxo-5-oxazolidinyl]methyl]-4-(2-naphthyl)-4-oxobutanamide], for which the “MIC against M. tuberculosis 27294” value with M. tuberculosis 27294 was determined as 16 µg/mL (≈ 32.7 µM).
Same read-out and setting: to `CCCc1ccc(C(=O)CCC(=O)NC[C@H]2CN(c3ccc(N4CCCC4)c(F)c3)C(=O)O2)c(C)c1` [Compound 58, (S)-N-[[3-(3-fluoro-4-pyrrolidinylphenyl)-2-oxo-5-oxazolidinyl]methyl]-4-(2′-methyl-4-propylphenyl)-4-oxobutanamide] belongs 8 µg/mL (≈ 16.1 µM).
